Reference: patent publication US20070167412A1, “HALOCOMBSTATINS AND METHODS OF SYNTHESIS THEREOF” (ARIZONA BOARD OF REGENTS, priority 2003, published 2007)

What was measured:
[1] = test system: human umbilical vein endothelial cells (HUVEC); assay: HUVEC growth inhibition, sulforhodamine B assay; format: cell-based; conditions: for Relative % Growth: HUVEC; for Human Umbilical Vein Endothelial Cell (HUVEC) Inhibition Values (GI50): Table V
Experimental: (§1) In vitro Matrigel antiangiogenesis assays were implemented according to the Developmental Therapeutics Program NCI/NIH protocols known to one of skill in the art. Matrigel, a basement membrane matrix, was obtained from BD Biosciences. Growth inhibition and cord formation assays were Conducted using human umbilical vein endothelial cells obtained from GlycoTeCh. HUVEC cells were grown in EGM-2 medium.
The standard sulforhodamine B assay (see Cancer Cell Line Procedures above) was used to evaluate results using HUVEC cells. IC50 or ED50 (drug concentration causing 50% inhibition) was calculated from the plotted data.

[2] = test system: human umbilical vein endothelial cells (HUVEC); assay: Matrigel cord formation assay; format: cell-based; design: key to Lengths of Cords: −: No Cords; +: Small; ++: ˜50% of Control; +++: Same as Control; conditions: 24 hours, compared to untreated controls
Experimental: as §1
(§2) An aliquot of sixty microliters was placed in each well of an ice-cold 96-well plate. The plates were then left for 15 minutes at room temperature, then incubated for 30 minutes at 37° C. to permit the matrigel to polymerize. Meanwhile, HUVEC cells were harvested and diluted to a concentration of 2×10^5 cells/ml. A solution of 100 μL containing the compounds to be tested was added next. After 24 hours incubation, pictures were taken for each concentration using an inverted Nikon Diaphot microscope and D100 digital camera. Drug effect was assessed, compared to untreated controls, by measuring the length of cords formed and number ofjunctions.

[3] = test system: human umbilical vein endothelial cells (HUVEC); assay: Matrigel cord formation assay; format: cell-based; design: key: −: No Junctions; +: Few; ++: ˜50% of Control; +++: Same as Control; conditions: 24 hours, compared to untreated controls
Experimental: as §1, §2

[4] = test system: Cryptococcus neoformans; assay: reference broth microdilution susceptibility assay; format: cell-based; conditions: Table III
From the text: (§3) The halocombstatins of the present invention appear to also have antimicrobial properties. More specifically, they appear to have antifungal and/or antibacterial properties. Antimicrobial evaluation of the halocombstatins involved susceptibility testing performed by the reference broth microdilution assay. The antimicrobial activities of the halocombstatins were very similar, targeting Gram-positive bacteria and the pathogenic fungi Cryptococcus neoformans, and results are shown in Table III.
(§4) (See Pettit, G. R., et al., Antineoplastic Agents 463. Synthesis of Combretastatin A-3 Diphosphates, Anticancer Drug Design 2000, 15, 397-404.) To determine the antimicrobial activity of the present compounds, susceptibility testing was performed by the reference broth microdilution assay. (See National Committee for Clinical Laboratory Standards. Methods for Dilution Antimicrobial Susceptibility Tests for Bacteria that Grow Aerobically. Approved Standard M7-A5. Wayne, P A: NCCLS, 2000. National Committee for Clinical Laboratory Standards. Reference Method for Broth Dilution Antifungal Susceptibility Testing of Yeasts. Aproved Standard M27-A. Wayne, P A: NCCLS, 1997.) The antimicrobial activities of the halocombretastatins of the present invention were very similar, targeting Gram-positive bacteria and Cryptococcus neoformans. This is illustrated in further detail in Table III. Thus, several of the novel compounds of the present invention appear to have potential as antimicrobial agents, such as antifingals and antibacterials.

[5] = test system: Escherichia coli; assay: reference broth microdilution susceptibility assay; format: cell-based; conditions: Table III
From the text: as §3, §4

[6] = test system: Stenotrophomonas maltophilia; assay: reference broth microdilution susceptibility assay; format: cell-based; conditions: Table III
From the text: as §3, §4

[7] = test system: Enterococcus faecalis; assay: reference broth microdilution susceptibility assay; format: cell-based; conditions: Table III
From the text: as §3, §4

[8] = test system: Staphylococcus aureus; assay: reference broth microdilution susceptibility assay; format: cell-based; conditions: Table III
From the text: as §3, §4

[9] = test system: Neisseria gonorrhoeae; assay: reference broth microdilution susceptibility assay; format: cell-based; conditions: Table III
From the text: as §3, §4

[10] = test system: Candida albicans; assay: reference broth microdilution susceptibility assay; format: cell-based; conditions: Table III
From the text: as §3, §4

[11] = test system: Micrococcus luteus; assay: reference broth microdilution susceptibility assay; format: cell-based; conditions: Table III
From the text: as §3, §4

[12] = test system: Enterobacter cloacae; assay: reference broth microdilution susceptibility assay; format: cell-based; conditions: Table III
From the text: as §3, §4

[13] = test system: Streptococcus pneumoniae; assay: reference broth microdilution susceptibility assay; format: cell-based; conditions: Table III
From the text: as §3, §4

[14] = test system: Colon KM20L2; assay: human cancer cell growth inhibition, sulforhodamine B assay; format: cell-based; conditions: Table I; 48 hours
Experimental: (§5) Inhibition of human cancer cell growth was assessed using the National Cancer Institute's standard sulforhodamine B assay. After 48 hours, the plates were fixed with trichloracetic acid, stained with sulforhodamine B and read with an automated microplate reader. […] Inhibition of the mouse leukemia P388 cells was assessed in a 10% horse serum/Fisher medium soution for 24 hours, followed by a 48 hour incubation with serial dilutions of the compounds. Cell growth inhibition (ED50) was then calculated using a Z1 Becleman/Coulter particle counter.

[15] = test system: CNS SF268; assay: as above; format: cell-based; conditions: Table I; 48 hours
Experimental: as §5

[16] = test system: Breast MCF-7; assay: as above; format: cell-based; conditions: Table I; 48 hours
Experimental: as §5

[17] = test system: Lung-NSC NCI-H460; assay: as above; format: cell-based; conditions: Table I; 48 hours
Experimental: as §5

[18] = test system: Prostate DU-145; assay: as above; format: cell-based; conditions: Table I; 48 hours
Experimental: as §5

[19] = test system: Pancreas BXPC-3; assay: as above; format: cell-based; conditions: Table I; 48 hours
Experimental: as §5

Row | Compound | Relative % Growth ([1]; 0.0001 μg/ml) | Relative % Growth ([1]; 0.01 μg/ml) | Relative % Growth ([1]; 0.1 μg/ml) | Human Umbilical Vein Endothelial Cell (HUVEC) Inhibition Values (GI50) [1] | Lengths of Cords ([2]; 0.1 μg/ml) | Range of minimum inhibitory concentration, Cryptococcus neoformans [4] | Range of minimum inhibitory concentration, Escherichia coli [5] | Range of minimum inhibitory concentration, Stenotrophomonas maltophilia [6] | Range of minimum inhibitory concentration, Enterococcus faecalis [7] | Range of minimum inhibitory concentration, Staphylococcus aureus [8] | Range of minimum inhibitory concentration, Neisseria gonorrhoeae [9] | Range of minimum inhibitory concentration, Candida albicans [10] | Range of minimum inhibitory concentration, Micrococcus luteus [11] | Range of minimum inhibitory concentration, Enterobacter cloacae [12] | Range of minimum inhibitory concentration, Streptococcus pneumoniae [13] | Human cancer cell line inhibition (GI50) Colon KM20L2 [14] | Human cancer cell line inhibition (GI50) CNS SF268 [15] | Human cancer cell line inhibition (GI50) Breast adn MCF-7 [16] | Human cancer cell line inhibition (GI50) Lung-NSC NCI-H460 [17] | Human cancer cell line inhibition (GI50) Prostate DU-145 [18] | also measured
1 | COc1ccc(/C=C\c2cc(I)c(OC)c(I)c2)cc1C(C)=O [Compound 22c, 3,5-diiodo-4,4′-dimethoxy-3′-acetyl-z-stilbene] |  |  |  |  |  |  |  |  |  |  |  |  |  |  |  |  |  |  |  |  | melting point: 121 to 122 °C
2 | Sodium 3,5-diiodo-4,4′dimethoxy-z-stilbene 3′-O-phosphate [Compound T (Table Ia)] | >100% | >100% | −2% | 0.051 µg/mL | + |  |  |  |  |  |  |  |  |  |  |  |  |  |  |  | Relative % Growth ([1]; 1 μg/ml): −7%; Lengths of Cords ([2]; 1 μg/ml): −; Number of junctions ([3]; 1 μg/ml): −
3 | Sodium 3-fluoro-4,4′,5-trimethoxy-Z-stilbene 3′-O-phosphate [Compound 18a] |  |  |  |  |  | * (no inhibition at 64 μg/ml) | * (no inhibition at 64 μg/ml) | * (no inhibition at 64 μg/ml) | * (no inhibition at 64 μg/ml) | * (no inhibition at 64 μg/ml) | 16 µg/mL | * (no inhibition at 64 μg/ml) | * (no inhibition at 64 μg/ml) | * (no inhibition at 64 μg/ml) | * (no inhibition at 64 μg/ml) | 1.5 µg/mL | 0.0051 µg/mL | 0.0044 µg/mL | 0.0094 µg/mL | 0.0036 µg/mL | Human cancer cell line inhibition (GI50) Pancreas-a BXPC-3 [19]: 0.59 µg/mL
4 | Sodium 3-iodo-4,4′,5-trimethoxy-z-stilbene 3′-O-phosphate [Compound 20a] | 104% | 14% | 7% | 0.00035 µg/mL | − | * (no inhibition at 64 μg/ml) | * (no inhibition at 64 μg/ml) | * (no inhibition at 64 μg/ml) | * (no inhibition at 64 μg/ml) | * (no inhibition at 64 μg/ml) | 16 to 32 µg/mL | * (no inhibition at 64 μg/ml) | * (no inhibition at 64 μg/ml) | * (no inhibition at 64 μg/ml) | * (no inhibition at 64 μg/ml) | 0.37 µg/mL | 0.0052 µg/mL | 0.012 µg/mL | 0.0031 µg/mL | 0.0078 µg/mL | Relative % Growth ([1]; 0.001 μg/ml): 5%; Lengths of Cords ([2]; 0.001 μg/ml): +; Lengths of Cords ([2]; 0.01 μg/ml): −; Number of junctions ([3]; 0.001 μg/ml): +; Number of junctions ([3]; 0.01 μg/ml): −; Number of junctions ([3]; 0.1 μg/ml): −; Human cancer cell line inhibition (GI50) Pancreas-a BXPC-3 [19]: 0.47 µg/mL
